Reference: USRE48335E1, “Polymyxin derivatives as antimicrobial compounds” (priority 2014, dated 2020)
Values after ≈ are worked out from the molar mass of the structure shown. Positions of bridges follow the written chain, without caps; N, C: chain ends. Non-standard residues stand in square brackets, D forms with d. Residues, ends and D or L forms follow the SMILES beside them. *: point of attachment. Benzoyl(4-CF3) = O=C(c1ccc(C(F)(F)F)cc1)*; Heptanoyl(6-Me) = CC(C)CCCCC(=O)*; Heptanoyl = CCCCCCC(=O)*; Octanoyl = CCCCCCCC(=O)*; Orn = NCCC[C@H](N)C(=O)O; Dab = NCC[C@H](N)C(=O)O; Abu = CC[C@H](N)C(=O)O; Dap = NC[C@H](N)C(=O)O; Hexanoyl = CCCCCC(=O)*

Tests used:
Acinetobacter baumannii = tested on: Acinetobacter baumannii
In short: (§1)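 MICs were determined for the lipopeptides, tested as trifluoroacetic acid salts, by broth microdilution in cation-adjusted Mueller-Hinton broth following CLSI standards (M100-S18). Polymyxin B sulphate served as the control.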

Enterobacter cloacae = tested on: Enterobacter cloacae
In short: as §1

Pseudomonas aeruginosa = tested on: Pseudomonas aeruginosa
In short: as §1

Structure (SMILES)	Minimum inhibitory concentration, Ab A ATCC 17978 (Acinetobacter baumannii) [µg/mL]	Minimum inhibitory concentration, Ab ATCC 19606 (Acinetobacter baumannii) [µg/mL]	Minimum inhibitory concentration, Ab FADDI-AB034 (Acinetobacter baumannii) [µg/mL]	Minimum inhibitory concentration, Ec FADDI-EC001 (Enterobacter cloacae) [µg/mL]	Minimum inhibitory concentration, Ec FADDI-EC003 (Enterobacter cloacae) [µg/mL]	Minimum inhibitory concentration, Ec FADDI-EC006 (Enterobacter cloacae) [µg/mL]	Minimum inhibitory concentration, Pa ATCC 27853 (Pseudomonas aeruginosa) [µg/mL]	Minimum inhibitory concentration, Pa FADDI-PA022 (Pseudomonas aeruginosa) [µg/mL]	Minimum inhibitory concentration, Pa FADDI-PA025 (Pseudomonas aeruginosa) [µg/mL]
CCCCCCCC(=O)N[C@@H](CCN)C(=O)N[C@H](C(=O)N[C@@H](CN)C(=O)N[C@H]1CCNC(=O)[C@H]([C@@H](C)O)NC(=O)[C@H](CCN)NC(=O)[C@H](CCCN)NC(=O)[C@H]([C@@H](C)O)NC(=O)[C@@H](CC(C)C)NC(=O)[C@H](CCN)NC1=O)[C@@H](C)O [Compound 54] (Octanoyl-[Dab]T[Dap][Dab][Dab][dL]T[Orn][Dab]T; lactam 4-C)	0.5 (≈ 0.437 µM)	0.5 (≈ 0.437 µM)	0.25 (≈ 0.219 µM)	<0.125	<0.125	0.25 (≈ 0.219 µM)	4 (≈ 3.5 µM)	2 (≈ 1.75 µM)	16 (≈ 14 µM)
CCCCCCCC(=O)N[C@@H](CCN)C(=O)N[C@H](C(=O)N[C@@H](CN)C(=O)N[C@H]1CCNC(=O)[C@H]([C@@H](C)O)NC(=O)[C@H](CCN)NC(=O)[C@H](CCN)NC(=O)[C@H]([C@@H](C)O)NC(=O)[C@@H](CC(C)C)NC(=O)[C@H](CCCN)NC1=O)[C@@H](C)O [Compound 55] (Octanoyl-[Dab]T[Dap][Dab][Orn][dL]T[Dab][Dab]T; lactam 4-C)	>32	>32	>32	1 (≈ 0.875 µM)	4 (≈ 3.5 µM)	>32	>32	>32	>32
CC(C)C[C@H]1NC(=O)[C@H](CCN)NC(=O)[C@@H](NC(=O)[C@H](CN)NC(=O)[C@@H](NC(=O)[C@H](CCN)NC(=O)c2ccc(C(F)(F)F)cc2)[C@@H](C)O)CCNC(=O)[C@H]([C@@H](C)O)NC(=O)[C@H](CCN)NC(=O)[C@H](CCN)NC(=O)[C@H]([C@@H](C)O)NC1=O [Compound 56] ({Benzoyl(4-CF3)}-[Dab]T[Dap][Dab][Dab][dL]T[Dab][Dab]T; lactam 4-C)	1 (≈ 0.851 µM)	2 (≈ 1.7 µM)	1 (≈ 0.851 µM)	<0.125	<0.125	0.25 (≈ 0.213 µM)	0.5 (≈ 0.425 µM)	2 (≈ 1.7 µM)	4 (≈ 3.4 µM)
CCCCCCCC(=O)N[C@@H](CCN)C(=O)N[C@H](C(=O)N[C@@H](CCN)C(=O)N[C@H]1CCNC(=O)[C@H]([C@@H](C)O)NC(=O)[C@H](CCN)NC(=O)[C@H](CCN)NC(=O)[C@H](CC)NC(=O)[C@@H](CC(C)C)NC(=O)[C@H](CCN)NC1=O)[C@@H](C)O [Compound 60] (Octanoyl-[Dab]T[Dab][Dab][Dab][dL][Abu][Dab][Dab]T; lactam 4-C)	0.5 (≈ 0.443 µM)	1 (≈ 0.887 µM)	0.5 (≈ 0.443 µM)	<0.125	<0.125	0.5 (≈ 0.443 µM)	0.5 (≈ 0.443 µM)	0.5 (≈ 0.443 µM)	8 (≈ 7.1 µM)
CCCCCCC(=O)N[C@@H](CCN)C(=O)N[C@H](C(=O)N[C@@H](CN)C(=O)N[C@H]1CCNC(=O)[C@H]([C@@H](C)O)NC(=O)[C@H](CCN)NC(=O)[C@H](CCN)NC(=O)[C@H](C)NC(=O)[C@@H](CC(C)C)NC(=O)[C@H](CCN)NC1=O)[C@@H](C)O [Compound 63] (Heptanoyl-[Dab]T[Dap][Dab][Dab][dL]A[Dab][Dab]T; lactam 4-C)	1 (≈ 0.921 µM)	2 (≈ 1.84 µM)	1 (≈ 0.921 µM)	0.5 (≈ 0.461 µM)	<0.125	0.5 (≈ 0.461 µM)	0.5 (≈ 0.461 µM)	2 (≈ 1.84 µM)	>32
CCCCCCC(=O)N[C@@H](CCN)C(=O)N[C@H](C(=O)N[C@@H](CN)C(=O)N[C@H]1CCNC(=O)[C@H]([C@@H](C)O)NC(=O)[C@H](CCN)NC(=O)[C@H](CCN)NC(=O)[C@H](CC)NC(=O)[C@@H](CC(C)C)NC(=O)[C@H](CCN)NC1=O)[C@@H](C)O [Compound 64] (Heptanoyl-[Dab]T[Dap][Dab][Dab][dL][Abu][Dab][Dab]T; lactam 4-C)	0.5 (≈ 0.455 µM)	0.5 (≈ 0.455 µM)	1 (≈ 0.91 µM)	0.5 (≈ 0.455 µM)	<0.125	0.25 (≈ 0.227 µM)	1 (≈ 0.91 µM)	2 (≈ 1.82 µM)	8 (≈ 7.28 µM)
CC(C)CCCCC(=O)N[C@@H](CCN)C(=O)N[C@H](C(=O)N[C@@H](CN)C(=O)N[C@H]1CCNC(=O)[C@H]([C@@H](C)O)NC(=O)[C@H](CCN)NC(=O)[C@H](CCN)NC(=O)[C@H](C)NC(=O)[C@@H](CC(C)C)NC(=O)[C@H](CCN)NC1=O)[C@@H](C)O [Compound 65] ({Heptanoyl(6-Me)}-[Dab]T[Dap][Dab][Dab][dL]A[Dab][Dab]T; lactam 4-C)	0.25 (≈ 0.227 µM)	0.5 (≈ 0.455 µM)	1 (≈ 0.91 µM)	0.5 (≈ 0.455 µM)	<0.125	0.25 (≈ 0.227 µM)	1 (≈ 0.91 µM)	2 (≈ 1.82 µM)	16 (≈ 14.6 µM)
CC[C@@H]1NC(=O)[C@@H](CC(C)C)NC(=O)[C@H](CCN)NC(=O)[C@@H](NC(=O)[C@H](CN)NC(=O)[C@@H](NC(=O)[C@H](CCN)NC(=O)CCCCC(C)C)[C@@H](C)O)CCNC(=O)[C@H]([C@@H](C)O)NC(=O)[C@H](CCN)NC(=O)[C@H](CCN)NC1=O [Compound 66] ({Heptanoyl(6-Me)}-[Dab]T[Dap][Dab][Dab][dL][Abu][Dab][Dab]T; lactam 4-C)	0.25 (≈ 0.225 µM)	0.25 (≈ 0.225 µM)	0.5 (≈ 0.449 µM)	0.5 (≈ 0.449 µM)	<0.125	0.25 (≈ 0.225 µM)	1 (≈ 0.898 µM)	2 (≈ 1.8 µM)	4 (≈ 3.59 µM)
CCCCCC(=O)N[C@@H](CCN)C(=O)N[C@H](C(=O)N[C@@H](CN)C(=O)N[C@H]1CCNC(=O)[C@H]([C@@H](C)O)NC(=O)[C@H](CCN)NC(=O)[C@H](CCN)NC(=O)[C@H](C)NC(=O)[C@@H](CC(C)C)NC(=O)[C@H](CCN)NC1=O)[C@@H](C)O [Compound 67] (Hexanoyl-[Dab]T[Dap][Dab][Dab][dL]A[Dab][Dab]T; lactam 4-C)	2 (≈ 1.87 µM)	4 (≈ 3.73 µM)	4 (≈ 3.73 µM)	<0.125	0.25 (≈ 0.233 µM)	0.5 (≈ 0.467 µM)	0.5 (≈ 0.467 µM)	0.5 (≈ 0.467 µM)	2 (≈ 1.87 µM)
CCCCCC(=O)N[C@@H](CCN)C(=O)N[C@H](C(=O)N[C@@H](CN)C(=O)N[C@H]1CCNC(=O)[C@H]([C@@H](C)O)NC(=O)[C@H](CCN)NC(=O)[C@H](CCN)NC(=O)[C@H](CC)NC(=O)[C@@H](CC(C)C)NC(=O)[C@H](CCN)NC1=O)[C@@H](C)O [Compound 68] (Hexanoyl-[Dab]T[Dap][Dab][Dab][dL][Abu][Dab][Dab]T; lactam 4-C)	1 (≈ 0.921 µM)	2 (≈ 1.84 µM)	1 (≈ 0.921 µM)	0.25 (≈ 0.23 µM)	<0.125	<0.125	0.5 (≈ 0.461 µM)	0.5 (≈ 0.461 µM)	2 (≈ 1.84 µM)
